Patent US5276205A, “Insecticides” (ICI Americas Inc., priority 1989, dated 1994)

Assays:
Assay type in all cases: in vivo
[1] = test system: Cabbage Looper [Trichoplusia ni (Hubner)]; assay: Cabbage looper insecticidal test (CL); conditions: second-instar larvae; percent in solution; mortality 3-5 days later; max. 0.1%
Description: (§1) The compounds in Table 1 above were tested for insecticidal activity using the following testing procedures. LC50 values, based on the results of these tests and calculated according to dosage-mortality curves, are expressed in Table 2.
Cabbage Looper [Trichoplusia ni (Hubner)]
The test compound was diluted in a 50-50 acetone-water solution. Cotyledons of hyzini squash (Calabacita abobrinha), approximately 1×1.5 inches, were immersed in the test solutions for 2-3 seconds and placed on a wire screen to dry. The dried leaves were placed in petri dishes containing a moistened piece of filter paper and infested with 5 second-instar cabbage looper larvae. The dishes were placed in a high humidity chamber. Mortality of the larvae was recorded 3-5 days later. Test concentrations ranged from 0.1% downward. The LC-50 value is expressed below in Table 2 under the heading "CL" in terms of percent of the test compound in solution.

[2] = test system: Housefly [Musca domestica]; assay: Housefly insecticidal test (HF); conditions: μg of test compound per 25 female flies; mortality after 48 hours; max. test level 100 μg
Description: as §1
Housefly [Musca domestica]
The test compound was diluted in acetone and aliquots pipetted onto the bottom of aluminum dishes. To ensure even spreading of the chemical on the bottom of the dishes, 1 ml of acetone containing 0.01% peanut oil was also added to each dish. After all solvents had evaporated, the dishes were placed in circular cardboard cages containing 25 female houseflies, 1-2 days old. The cages were covered on the bottom with cellophane and on the top with tulle netting, and each contained a sugar-water saturated cotton plug for maintenance of the flies. Mortality was recorded after 48 hours. Test levels ranged from 100 μg/25 female houseflies downward. The LC-50 value is expressed below in Table 2 under the heading "HF", in terms of μg of the test compound per 25 female flies.

[3] = test system: two-spotted mite [Tetranychus urticae (Koch)], adults; assay: Two-spotted mite acaricidal test, adults (2SM-A); conditions: percent in dip solution, mortality after 5-7 days, max. 0.05%
Source text: (§2) Acaricidal Evaluation Test
(§3) The two-spotted mite (2SM) [Tetranychus urticae (Koch)] was employed in tests for miticides. The test procedure was as follows:
(§4) Pinto bean plants (Phaseolus sp.), approximately 10 cm tall, were transplanted into sandy loam soil in small cups and thoroughly infested with two-spotted mites of mixed ages and sexes. Twenty-four hours later the infested plants were inverted and dipped for 2-3 seconds in 50-50 acetone-water solutions of the test compound. Treated plants were held in the greenhouse, and 5-7 days later mortality was determined for both adult mites and the nymphs hatching from eggs which were on the plants at the time of treatment. Test concentrations ranged from 0.05% downward. The LC-50 value is expressed below in Table 2 under the headings "2SM-A" (i.e., adults) and "2SM-E" (i.e. eggs) in terms of percent concentration of the test compound in the solution.

[4] = test system: Western Spotted Cucumber Beetle Larvae [Diabrotica undecimpunctata (Mannherheim)]; assay: Western spotted cucumber beetle larvae soil test (Diab); conditions: ppm in soil; max. 25 ppm
Description: as §1
Western Spotted Cucumber Beetle Larvae [Diabrotica undecimpunctata (Mannherheim)]
Ten grams of moist potting soil was placed in a plastic cup. The test compound was dissolved in acetone. A 0.05 ml aliquot of the test sample, diluted to the desired concentration, was added to the soil. The cup was capped and the soil was mixed on a vortex mixer for approximately 15 seconds. An indentation was made on the surface of the soil and approximately 50 Diabrotica eggs were added. The eggs were covered with soil and maintained at room temperature (approximately 70° F. or 21° C.). Four days later a section of Romaine lettuce (Latuca sativa) leaf was placed in the treated cups. One week later the cups were examined for live larvae. Test concentrations ranged from 25 ppm downward. The LC-50 value is expressed below in Table 2 under the heading "Diab" in terms of ppm of the test compound in the soil.

[5] = test system: two-spotted mite [Tetranychus urticae (Koch)], eggs; assay: Two-spotted mite acaricidal test, eggs (2SM-E); conditions: percent in dip solution, mortality after 5-7 days, max. 0.05%
Source text: as §2, §3, §4

[6] = test system: Tobacco Budworm [Heliothis virescens (Fabricius)], eggs; assay: Tobacco budworm egg test (TBW-E); conditions: 2-day old eggs dipped; percent in acetone solution; max. 0.1%
Description: The compounds in Table 1 above were tested for insecticidal activity using the following testing procedures.
Tobacco Budworm [Heliothis virescens (Fabricius)]
Eggs: Paper towel patches of 2-day old eggs of the tobacco budworm were dipped in acetone solutions of the test compound and placed in petri dishes containing a portion of larval rearing medium. […] Test concentrations ranged from 0.1% downward. The LC-50 value is expressed below in Table 2 under the heading "TBW-E" in terms of percent of the test compound in the solution.

[7] = test system: Black Bean Aphid [Aphis fabae (Scop.)]; assay: Black bean aphid insecticidal test (BBA); conditions: percent in sprayed solution; mortality after 48 hours; max. 0.05%
Description: as §1
Black Bean Aphid [Aphis fabae (Scop.)]
Nasturtium plants (Tropaeolum sp.) approximately 5 cm tall, were transplanted into sandy loam soil in small cups and infested with 25-50 black bean aphids of mixed ages. Twenty-four hours later they were sprayed to the point of runoff with 50-50 acetone-water solutions of the test compound. Treated plants were held in the greenhouse and mortality was recorded after 48 hours. Test concentrations ranged from 0.05% downward. The LC-50 value is expressed below in Table 2 under the heading "BBA" in terms of percent of the test compound in the sprayed solution.

| Compound | LC50 CL [1] | LC50 HF [2] | LC50 2-SM A [3] | LC50 Diab. [4] | LC50 2-SM E [5] | LC50 TBW E [6] | LC50 BBA [7] |
| --- | --- | --- | --- | --- | --- | --- | --- |
| CC(C)C(O)(CCc1cccc(Oc2ccccc2)c1)Cc1ccc(Cl)cc1 (centres unmarked) [Compound 1, 1-(4-chlorophenyl)-2-isopropyl-4-(3-phenoxyphenyl)-2-butanol] | 0.015% | > 100 µg | > 0.05% | > 25 ppm (soil) | > 0.05% | > 0.1% | 0.05% |
| Cc1ccc(CC(O)(CCc2cccc(Oc3ccccc3)c2)C(C)C)cc1 (centres unmarked) [Compound 2] | 0.016% | > 100 µg | > 0.05% | > 25 ppm (soil) | > 0.05% | > 0.1% | 0.05% |
| OC(CCc1cccc(Oc2ccccc2)c1)(Cc1ccc(Cl)cc1)C1CC1 (centres unmarked) [Compound 3] | 0.025% | > 100 µg | > 0.05% | > 25 ppm (soil) | > 0.05% | > 0.1% | > 0.05% |
| OC(CCc1cccc(Oc2ccccc2)c1)(Cc1cccc(Cl)c1)C1CC1 (centres unmarked) [Compound 4] | 0.035% | > 100 µg | > 0.05% | > 25 ppm (soil) | > 0.05% | > 0.1% | > 0.05% |
| CC(C)C(O)(CCc1cccc(Oc2ccccc2)c1)Cc1cccc(Cl)c1 (centres unmarked) [Compound 5] | 0.008% | 84 µg | > 0.05% | > 25 ppm (soil) | > 0.05% | > 0.1% | 0.05% |
